In patent US10981902B2 (Merck Sharp & Dohme Corp., priority 2017, dated 2021):

Target: T1, human M4 muscarinic acetylcholine receptor (Homo sapiens, UniProt P08173)
T1 construct: expressed in transfected cells; host or cells: CHO-K1
T1 sequence (P08173 1-479): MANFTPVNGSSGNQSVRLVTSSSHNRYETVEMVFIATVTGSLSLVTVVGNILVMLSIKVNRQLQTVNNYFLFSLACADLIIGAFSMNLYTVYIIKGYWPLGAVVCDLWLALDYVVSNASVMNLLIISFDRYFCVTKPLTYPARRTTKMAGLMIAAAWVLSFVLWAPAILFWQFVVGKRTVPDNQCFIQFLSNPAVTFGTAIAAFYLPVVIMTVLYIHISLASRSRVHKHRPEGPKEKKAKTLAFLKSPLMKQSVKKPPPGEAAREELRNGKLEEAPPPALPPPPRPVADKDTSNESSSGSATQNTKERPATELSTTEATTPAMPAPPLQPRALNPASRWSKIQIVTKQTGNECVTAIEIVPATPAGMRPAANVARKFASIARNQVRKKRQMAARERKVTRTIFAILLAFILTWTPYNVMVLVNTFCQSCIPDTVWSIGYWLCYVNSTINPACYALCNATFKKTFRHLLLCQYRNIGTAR
Experiment: human FLIPR-based M4 PAM assay (calcium mobilization, CHO-K1 cells with human M4 receptor and Gαqi5)
Type: cell-based
Conditions: inflection point (IP) of dose response curve, acetylcholine added at 20% of maximum response, read-out: M4 FLIPPR Hu IP
Procedure: In a typical experiment the M4 muscarinic acetylcholine receptor modulating activity of the compounds of the present invention was determined in accordance with the following experimental method. CHO-K1 cells stably transfected with human M4 receptor and chimeric G-protein Gαqi5 (Coward P, et al., Analytical Biochemistry, 270:242-248 (1999)) are thawed from liquid N2 storage, resuspended in growth medium, plated in black, clear bottom 384 well plates, and incubated 16-20 hours at 37° C., 5% CO2. On the day of assay, growth medium is removed, the cells are washed 2 times with wash buffer, and cells are incubated in dye loading buffer at 37° C., 5% CO2 for ˜1 hour. Following dye loading the cell plates are placed in a FLIPR Tetra instrument and while monitoring dye fluorescence (excitation […]), 10 uL of test substance at increasing concentrations is added, and fluorescence values are recorded for 4 min. Next, 10 uL of acetylcholine is added (final concentration calculated so as to achieve 20% of the maximum acetycholine response), and the fluorescence reading is continued for 3.5 min. In some cases, a third addition of acetylcholine (final concentration calculated to achieve 70% of the maximal acetylcholine response) is performed. The resulting dose response curves are fit to a 4 parameter logistic equation and the final result is determined as the inflection point (IP) of the curve
CHO-K1 cells stably transfected with human M4 receptor and chimeric G-protein Gαqi5 are thawed from liquid N2 storage, resuspended in growth medium, plated in black, clear bottom 384 well plates, and incubated 16-20 hours at 37° C., 5% CO2.
On the day of assay, growth medium is removed, the cells are washed 2 times with wash buffer, and cells are incuabted in dye loading buffer at 37° C., 5% CO2 for ˜1 h. Following dye loading the cell plates are placed in a FLIPR Tetra instrument and while monitoring dye fluorescence ([…]), 10 uL of test substance at increasing concentrations is added, and fluorescence values are recorded for 4 min. Next, 10 uL of acetylcholine is added (final concentration calculated so as to achieve 20% of the maximum acetycholine response), and the fluorescence reading is continued for 3.5 min. In some cases, a third addition of acetylcholine (final concentration calculated to achieve 70% of the maximal acetylcholine response) is performed.

Compound	EC50 [nM]
CN1Cc2ncc(-c3nc(C#N)ccc3-c3cnc(CC(C)(C)C)o3)cc2C1=O [Example 18, 6-(6-methyl-5-oxo-6,7-dihydro-5H-pyrrolo[3,4-b]-pyridin-3-yl)-5-(2-neopentyloxazol-5-yl)picolinonitrile]	150
CCC(F)(CC)Cc1ncc(-c2ccc(C#N)nc2-c2ccc3cccnc3c2)o1 [Example 74, 5-(2-(2-ethyl-2-fluorobutyl)oxazol-5-yl)-6-(quinolin-7-yl)picolinonitrile]	138
CC(C)(F)CCc1ncc(-c2ccc(C#N)nc2-c2ccn3ccnc3c2)o1 [Example 104, 5-(2-(3-fluoro-3-methylbutyl)oxazol-5-yl)-6-(imidazo[1,2-a]pyridin-7-yl) picolinonitrile]	147
CN1Cc2ncc(-c3nc4c(cc3-c3cnc(CC5CCCC5)o3)CCC4)cc2C1=O [Example 53, 3-(3-(2-(cyclopentylmethyl)oxazol-5-yl)-6,7-dihydro-5H-cyclopenta[b]pyridin-2-yl)-6-methyl-6,7-dihydro-5H-pyrrolo[3,4-b] pyridin-5-one]	153
Cc1cn2ccc(-c3nc(C#N)ccc3-c3cnc(CC(O)C(C)C)o3)cc2n1 (centres unmarked) [Example 92, 5-(2-(2-hydroxy-3-methylbutyl)oxazol-5-yl)-6-(2-methylimidazo [1,2-a]pyridin-7-yl)picolinonitrile]	131
COCc1cn2ccc(-c3nc(C#N)ccc3-c3cnc(CC4CC4)o3)cc2n1 [Example 93, 5-(2-(cyclopropylmethyl)oxazol-5-yl)-6-(2-(methoxymethyl)imidazo[1,2-a]pyridin-7-yl)picolinonitrile]	137
Cc1ccc(-c2cnc(Cc3ccc(F)cc3)o2)c(N2CCn3ccnc3C2)n1 [Example 59, 5-(2-(5,6-dihydroimidazo[1,2-a]pyrazin-7(8H)-yl)-6-methylpyridin-3-yl)-2-(4-fluorobenzyl)oxazole]	459
Cc1cn2ccc(-c3nc(C#N)ccc3-c3cnc(CC4(O)CCCC4)o3)cc2n1 [Example 75, 5-(2-((1-hydroxycyclopentyl)methyl)oxazol-5-yl)-6-(2-methylimidazo [1,2-a]pyridin-7-yl) picolinonitrile]	230
CC(C)(Cc1ncc(-c2ccc(C#N)nc2-c2ccn3ccnc3c2)o1)C(F)(F)F [Example 28, 6-(imidazo[1,2-a]-pyridin-7-yl)-5-(2-(3,3,3-trifluoro-2,2-dimethylpropyl)-oxazol-5-yl)picolino-nitrile]	122
Cc1nc2cc(-c3nc(C#N)ccc3-c3cnc(CC(C)(C)F)o3)ccc2n1C [Example 89, 6-(1,2-dimethyl-1H-benzo[d]imidazol-5-yl)-5-(2-(2-fluoro-2-methylpropyl)oxazol-5-yl)picolinonitrile]	112
Cc1nc2cc(-c3nc(C#N)ccc3-c3cnc(CC(C)(C)C(F)(F)F)o3)ccc2n1C [Example 111, 6-(1,2-dimethyl-1H-benzo[d]imidazol-5-yl)-5-(2-(3,3,3-trifluoro-2,2-dimethylpropyl)oxazol-5-yl)picolinonitrile]	114

Stronger by EC50, values ahead:

EC50 [nM]	Compound
105	N#Cc1ccc(-c2cnc(CCC(F)(F)C(F)(F)F)o2)c(-c2ccn3ccnc3c2)n1 [Example 109, 6-(imidazo[1,2-a]pyridin-7-yl)-5-(2-(3,3,4,4,4-pentafluorobutyl)oxazol-5-yl) picolinonitrile]
104	CC(C)(Cc1ncc(-c2ccc(C#N)nc2-c2ccc3cccnc3c2)o1)C(F)(F)F [Example 23, 6-(quinolin-7-yl)-5-(2-(3,3,3-trifluoro-2,2-dimethylpropyl)-oxazol-5-yl)picolino-nitrile]
92	Cn1cnc2cc(-c3nc(C#N)ccc3-c3cnc(CC(C)(C)C(F)(F)F)o3)ccc21 [Example 114, 6-(1-methyl-1H-benzo[d]imidazol-5-yl)-5-(2-(3,3,3-trifluoro-2,2-dimethylpropyl)oxazol-5-yl)picolinonitrile]
89	Cc1nc2cc(-c3nc(C#N)ccc3-c3cnc(CC4CC(F)(F)C4)o3)ccn2n1 [Example 99, 5-(2-((3,3-difluorocyclobutyl)methyl)oxazol-5-yl)-6-(2-methyl-[1,2,4]triazolo[1,5-a]pyridin-7-yl) picolinonitrile]
86	CC(C)(F)CCc1ncc(-c2ccc(C#N)nc2-c2ccc3cccnc3c2)o1 [Example 103, 5-(2-(3-fluoro-3-methylbutyl)oxazol-5-yl)-6-(quinolin-7-yl)picolinonitrile]
78	COCc1cn2ccc(-c3nc(C#N)ccc3-c3cnc(CC(C)(C)C)o3)cc2n1 [Example 37, 6-(2-(methoxy-methyl)imidazo-[1,2-a]pyridin-7-yl)-5-(2-neopentyl-oxazol-5-yl)picolino-nitrile]
69	CC(C)(C)Cc1ncc(-c2ccc(C#N)nc2-c2ccc3cccnc3c2)o1 [Example 11, 5-(2-neopentyl-oxazol-5-yl)-6-(quinolin-7-yl)-picolinonitrile]
60	Cc1nc2cc(-c3nc(C#N)ccc3-c3cnc(CCC(C)(C)F)o3)ccc2n1C [Example 117, 6-(1,2-dimethyl-1H-benzo[d]imidazol-5-yl)-5-(2-(3-fluoro-3-methylbutyl)oxazol-5-yl) picolinonitrile]
52	CC1(Cc2ncc(-c3ccc(C#N)nc3-c3cnc4c(c3)C(=O)N(CCF)C4)o2)CCCC1 [Example 96, 6-(6-(2-fluoroethyl)-5-oxo-6,7-dihydro-5H-pyrrolo[3,4-b]pyridin-3-yl)-5-(2-((1-methylcyclopentyl)methyl)oxazol-5-yl)picolinonitrile]
49	N#Cc1ccc(-c2cnc(CC(F)C3CC3)o2)c(-c2ccn3ccnc3c2)n1 (centres unmarked) [Example 85, 5-(2-(2-cyclopropyl-2-fluoroethyl)oxazol-5-yl)-6-(imidazo[1,2-a]pyridin-7-yl) picolinonitrile]
36	Cc1cn2ccc(-c3nc(C#N)ccc3-c3cnc(CC4CC(F)(F)C4)o3)cc2n1 [Example 98, 5-(2-((3,3-difluorocyclobutyl)methyl)oxazol-5-yl)-6-(2-methylimidazo[1,2-a]pyridin-7-yl)picolinonitrile]
31	Cc1cn2ccc(-c3nc(C#N)ccc3-c3cnc(CC4(F)CCCC4)o3)cc2n1 [Example 79, 5-(2-((l-fluorocyclopentyl)methyl)oxazol-5-yl)-6-(2-methylimidazo [1,2-a]pyridin-7-yl) picolinonitrile]
30	N#Cc1ccc(-c2cnc(CC(F)C3CC3)o2)c(-c2ccn3ccnc3c2)n1 (centres unmarked) [Example 84, 5-(2-(2-cyclopropyl-2-fluoroethyl)oxazol-5-yl)-6-(imidazo[1,2-a]pyridin-7-yl) picolinonitrile]
26	CN1Cc2ncc(-c3nc4c(cc3-c3cnc(CC5(C)CCCC5)o3)CCC4)cc2C1=O [Example 17, 6-methyl-3-(3-(2-((1-methylcyclo-pentyl)methyl)-oxazol-5-yl)-6,7-dihydro-5H-cyclo-penta[b]pyridin-2-yl)-6,7-dihydro-5H-pyrrolo[3,4-b]-pyridin-5-one]
11	Cc1ccc(-c2cnc(CC3CCCC3)o2)c(N2CCn3ccnc3C2)n1 [Example 56, 2-(cyclopentylmethyl)-5-(2-(5,6-dihydroimidazo[1,2-a]pyrazin-7(8H)-yl)-6-methylpyridin-3-yl)oxazole]
